This experiment addresses T1, SaMTAN (5′-methylthioadenosine/S-adenosylhomocysteine nucleosidase) (Staphylococcus aureus, UniProt Q99TQ0).
T1 sequence (Q99TQ0 1-228): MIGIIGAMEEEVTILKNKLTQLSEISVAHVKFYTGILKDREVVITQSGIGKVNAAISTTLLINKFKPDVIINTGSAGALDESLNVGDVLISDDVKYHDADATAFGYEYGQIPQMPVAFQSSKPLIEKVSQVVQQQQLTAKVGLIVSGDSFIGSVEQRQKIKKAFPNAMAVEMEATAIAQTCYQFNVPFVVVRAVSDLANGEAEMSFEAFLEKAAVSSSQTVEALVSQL
Kind of experiment: ITC. In kind it is binding.

For the compound `CSC[C@H]1CN(Cc2c[nH]c3c(N)ncnc23)C[C@@H]1O` [MT-DADMe-ImmA], the Kd came out at 9 nM.

Source of the values: publication PMC3977580 (Biochemistry, 2014).
